Test system: Normal human coronary artery smooth muscle cells (HCASMC)
Experiment: Measurement of responsiveness to CGRP (intracellular cAMP EIA after 0.5 nM CGRP stimulation)
Assay type: cell-based
Conditions: lignan at predetermined concentrations during 60 min PDI infiltration and 15 min 0.5 nM CGRP stimulation, control = 0.5 nM CGRP only (100% = 1189.3 fmol/well), Dunnett's test, N = 3, Fig. 1
Experimental: Normal human coronary artery smooth muscle cells (HCASMC; Kurabo Industries, Ltd., cell lot #01272) were cultured in a growth medium (product obtained by adding 25 ml of FBS, 0.5 ml of hEGF, 0.5 ml of hFGF-B, 0.5 ml of insulin and 0.5 ml of an antibacterial agent to 500 ml of basal medium HuMedia-SB2; Kurabo Industries, Ltd). 0.025% Trypsin/0.01% EDTA was used for the passage. […]
The cells were washed twice with a basal medium (HuMedia-SB2; Kurabo Industries, Ltd.) containing phosphodiesterase inhibitors (PDI), IBMX (3-isobutyl-1-methylxanthine, 500 µM, Sigma-Aldrich Co.), Ro-20-1724 (100 µM; Wako Pure Chemical Industries, Ltd.), and a lignan compound shown below at a predetermined concentration. […] Termination of the reaction was carried out by adding a lysis buffer attached to a cAMP analysis EIA kit (cAMP EIA (non-acetylation); GE Healthcare Biosciences Corp.) to the cells, and the intracellular cAMP concentration ([cAMP]i) was measured according to the method described in the manual. […]
HCASMC (Kurabo Industries, Ltd., cell lot #01272) was prepared under the same conditions as those used in Example 1. […] Thereafter, the cellular responsiveness to CGRP was measured by the same method as that used in Example 1.

Row | Compound | cellular responsiveness to CGRP (Improve Index, percentage of [cAMP]i)
1 | COc1cc([C@@H]2c3cc4c(c(OC)c3C[C@H]3COC(=O)[C@@H]32)OCO4)cc(OC)c1OC [TD-1] | significantly promoted the cellular responsiveness to CGRP in a concentration-dependent manner
2 | COc1cc([C@@H]2c3cc4c(cc3C[C@H]3COC(=O)[C@@H]32)OCO4)cc(OC)c1OC [TD-2] | significantly promoted the cellular responsiveness to CGRP in a concentration-dependent manner

— EP2842558A1, “CGRP RESP[…]” (Kao Corporation, priority 2012, dated 2013)
